In patent US20080292571A1, “Deodorant composition with monocyclic, unsaturated sequiterpene alcohols and glyceryl monoalkyl ethers as synergistic active deodorant agents” (priority 2007, published 2008):

Legend:
Staphylococcus = assay: Anti-microbial test: microorganisms inoculated into gel formula, survivors counted; type: cell-based
Protocol: The antimicrobially synergistically effect of alpha Bisabolol (Natural) for glyceryl monoalkyl ether was studied and the results are summarized in Tables 15 and 16, below. […] Subsequently the steareth-100, sodium stearate, and stearyl alcohol were added and the mixture cooled. […] The final compositions were then poured into containers and cooled to room temperature. […] Therefore following formula is gel type. Inoculate test microorganisms to provide a suspension containing from […] microorganisms/ml and after 1 hr, 5 hr and 24 hr, check the surviving microorganisms by incubating in the soybean-casein digest agar for 24 hours at 32.5° C. the results are summarized below.

[1] = test system: odor-causing gram positive bacteria; details: as reported in U.S. Pat. No. 5,736,574; cited from earlier work
[2] = cited from earlier work
[3] = 0.3% by weight ethylhexylglycerin in ethanol base deodorant vs 0.1% by weight triclosan; cited from earlier work

| SMILES | anti-microbial activity (in words) (Staphylococcus; 0.2% by weight, with no ethylhexylglycerin) | effect on the anti-microbial activity of ethylhexylglycerin (Staphylococcus; alpha Bisabolol (Natural) combined with ethylhexylglycerin) | anti-microbial activity against odor-causing gram positive bacteria [1] | stability ([2]; e.g. against hydrolysis and elevated temperatures) | solubility in fats and organic solvents ([2]; fats and organic solvents like alcohols, glycols and glycol ethers) | solubility in water ([2]; water) [%] | deodorant effectiveness compared with triclosan [3] |
| --- | --- | --- | --- | --- | --- | --- | --- |
| CC(C)=CCC[C@](C)(O)[C@@H]1CC=C(C)CC1 [alpha Bisabolol (Natural), alpha-Bisabolol] | no anti-microbial activity | synergistic effect |  |  |  |  |  |
| CCCCC(CC)COCC(O)CO (stereo not shown) [ethylhexylglycerin, Ethylhexylglycerin] |  |  | very low | rather stable | completely soluble | 0.2 | just as effective as 0.1% by weight triclosan |
